Reference: patent publication US7247734B2 (Vernalis (Cambridge) Limited, priority 2001, dated 2007)

target: T1, yeast HSP90 (Saccharomyces cerevisiae, UniProt P02829); test: Malachite green HSP90 ATPase assay; assay type: biochemical; settings: Hsp90 IC50, activity class
T1 construct: made in house; host or cells: E. coli
From the text: Two methods have been developed to measure the intrinsic ATPase activity of HSP90, using yeast HSP90 as a model system. The first method utilises a regenerating coupled enzyme assay. The second assay, based on the use of malachite green for the measurement of inorganic phosphate, was designed for high throughput screening (HTS) to identify novel HSP90 inhibitor drug candidates.
Colorimetric assays for the determination of phosphate, based on the formation of a phosphomolybdate complex, can be carried out in a few steps with inexpensive reagents and are well suited to the automation required for high throughput screening (see, e.g., Cogan et al., 1999). Enzymes that release inorganic phosphate are assayed using the reaction of the cationic dye, malachite green, with the a complex formed by a reaction of the inorganic phosphate with molybdate to generate a blue-green colour with an absorbance maximum at 610 nm (see, e.g., Baykov et al., 1988; Harder et al., 1994; Maehama et al., 2000). The method has been used in both high throughput (see, e.g., Rumsfeld et al., 2000) and ultra-high throughput screening formats (see, e.g., Layery et al., 2001) for a variety of non-HSP90 ATPases. However, this method is complicated by the non-enzymatic hydrolysis of ATP in the presence of acidic malachite green reagent, causing an increase in colour (see, e.g., Chan et al., 1986; Henkel et al., 1988). This process is mediated by molybdate and can be overcome by the addition of sodium citrate immediately after the reagent (see, e.g., Lanzetta et al., 1979; Schirmer et al., 1998; Baginski et al., 1975). This modification has been adapted to the 96-well microtitre plate assay previously described for other ATPases (see, e.g., Lanzetta et al., 1979) to produce the following protocol for HSP90 ATPase, which is suitable for high throughput screening.
Chemicals are of the highest purity commercially available and all aqueous solutions are made up in AR water. Because of the need to minimise contamination with inorganic phosphate, precautions should be taken with solutions and apparatus used in the assays. Glassware and pH meters are rinsed with double distilled or deionised water before use and, wherever possible, plastic ware should be used. Gloves are worn for all procedures. • (1) Immulon 96-well (Thermo Labsystems, Basingstoke, UK) or Cliniplate 384-well flat-bottomed polystyrene multiwell plates (Thermo Labsystems). • (2) Assay buffer of (a) 100 mM Tris-HCl, pH 7.4, (b) 20 mM KCl, (c) 6 mM MgCl2. Stored at 4° C. • (3) 0.0812% (w/v) malachite green (M 9636, Sigma Aldrich Ltd., Poole, UK). Stored at room temperature. • (4) 2.32% (w/v) polyvinyl alcohol USP (P 1097, Sigma Aldrich Ltd, Poole, UK) in boiling water (see Comment 1), allowed to cool, and stored at room temperature. • (5) 5.72% (w/v) ammonium molybdate in 6 M hydrochloric acid. Stored at room temperature. • (6) 34% (w/v) sodium citrate. Stored at room temperature. • (7) ATP, disodium salt, special quality (519979, Boehringer Mannheim, Lewes, UK). Stored at 4° C. • (8) E. coli expressed yeast HSP90 protein, purified >95% (see, e.g., Panaretou et al., 1998) and stored at −80° C. as 10 μl aliquots containing 0.5 mg of protein. Method
The following protocol was used: • (1) On the day of use, prepare the malachite green reagent from the stock solutions. Mix (a) 2 parts of malachite green, (b) 1 part of polyvinyl alcohol, (c) 1 part of ammonium molybdate, and (d) 2 parts of water. Initially, the reagent is a dark brown colour, but after standing at room temperature for about 2 h, this becomes a golden yellow colour and is ready for use. • (2) For the high throughput screening assays, the test compounds are dissolved at 200 μM in 2.0% DMSO and contained in daughter plates derived from the chemical libraries. Transfer 5 μl of each sample from the daughter plate to each well of the assay plate using automated equipment (see Comment 3). This represents a final concentration in the well of 40 μM.

T1 sequence (P02829 whole entry, looked up): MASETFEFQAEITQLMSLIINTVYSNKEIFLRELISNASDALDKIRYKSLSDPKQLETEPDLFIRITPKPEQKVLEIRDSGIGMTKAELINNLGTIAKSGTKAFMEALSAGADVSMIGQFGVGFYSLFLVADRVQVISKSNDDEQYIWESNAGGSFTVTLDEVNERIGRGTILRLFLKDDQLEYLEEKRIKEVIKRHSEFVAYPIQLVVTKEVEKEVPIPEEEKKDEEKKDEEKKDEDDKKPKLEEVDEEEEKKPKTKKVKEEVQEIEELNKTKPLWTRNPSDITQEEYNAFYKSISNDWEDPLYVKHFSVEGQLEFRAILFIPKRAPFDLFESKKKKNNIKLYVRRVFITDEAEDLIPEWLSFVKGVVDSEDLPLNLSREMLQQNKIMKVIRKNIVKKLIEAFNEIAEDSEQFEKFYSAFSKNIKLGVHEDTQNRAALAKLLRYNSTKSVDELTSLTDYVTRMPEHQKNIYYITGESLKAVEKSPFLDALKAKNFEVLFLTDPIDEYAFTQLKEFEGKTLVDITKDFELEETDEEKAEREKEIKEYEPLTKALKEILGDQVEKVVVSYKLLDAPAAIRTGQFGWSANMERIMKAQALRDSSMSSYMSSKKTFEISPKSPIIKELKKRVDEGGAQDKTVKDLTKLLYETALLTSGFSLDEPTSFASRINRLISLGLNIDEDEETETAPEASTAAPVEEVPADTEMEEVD

Compound	IC50 [µM]
CCc1cc(-c2n[nH]c(C)c2-c2ccc3c(c2)OCCO3)c(O)cc1O [Example 49]	< 10
Oc1cc(O)c(-c2n[nH]cc2-c2ccc3c(c2)OCCO3)cc1Cl [Example 63]	< 10
COc1ccc(-c2c(-c3cc(Cl)c(O)cc3O)n[nH]c2C)cc1 [Example 64]	< 10
Cc1[nH]nc(-c2ccc(O)cc2O)c1-c1ccc2c(c1)OCCO2 [Example 81]	10 to 100
COc1ccc(-c2c(-c3ccc(O)cc3O)n[nH]c2C)cc1 [Example 92]	10 to 100
COc1ccc(-c2c(-c3cc(Br)c(O)cc3O)n[nH]c2C)cc1 [Example 93, 4-Bromo-6-[4-(4-methoxy-phenyl)-5-methyl-1H-pyrazol-3-yl]-benzene-1,3-diol]	< 10
Cc1[nH]nc(-c2cc(Cl)c(O)cc2O)c1-c1ccc2c(c1)OCCO2 [Example 109]	< 10

same assay, conditions: activity class; read-out: Hsp90 IC50

Compound	IC50 [µM]
CCc1cc(-c2n[nH]cc2-c2ccc(OC)c(OC)c2)c(O)cc1O [Example 50]	< 10
COc1ccc(-c2c[nH]nc2-c2ccc(O)cc2O)cc1OC [Example 51]	10 to 100
COc1ccc(-c2c[nH]nc2-c2cc(Cl)c(O)cc2O)cc1OC [Example 52]	< 10
Oc1cc(O)c(-c2n[nH]cc2-c2ccccc2)cc1Cl [Example 53]	< 10
CCc1cc(-c2n[nH]cc2-c2ccccc2)c(O)cc1O [Example 54]	< 10
Oc1ccc(-c2[nH]ncc2-c2ccccc2)c(O)c1 [Example 55]	10 to 100
Oc1ccc(-c2[nH]ncc2-c2ccc(Br)cc2)c(O)c1 [Example 56]	> 10
Oc1cc(O)c(-c2n[nH]cc2-c2ccc(Br)cc2)cc1Cl [Example 57]	< 10
Cc1[nH]nc(-c2cc(Cl)c(O)cc2O)c1-c1ccc(Br)cc1 [Example 58]	< 10
Cc1[nH]nc(-c2ccc(O)cc2O)c1-c1ccccc1 [Example 59]	> 10
Oc1cc(O)c(-c2n[nH]cc2-c2ccccc2Br)cc1Cl [Example 60]	< 10
N#CCCCOc1ccc(-c2cn[nH]c2-c2cc(Cl)c(O)cc2O)cc1 [Example 61]	< 10
Oc1cc(O)c(-c2n[nH]cc2-c2ccc(-c3ccc(F)cc3)cc2)cc1Cl [Example 62]	< 10
Oc1cc(O)c(-c2n[nH]cc2-c2ccccc2F)cc1Cl [Example 65]	< 10
Oc1cc(O)c(-c2n[nH]cc2-c2cccc(Br)c2)cc1Cl [Example 66]	< 10
Oc1cc(O)c(-c2n[nH]cc2-c2cccc(OCCF)c2)cc1Cl [Example 67]	< 10
COc1ccc(-c2cccc(-c3c[nH]nc3-c3cc(Cl)c(O)cc3O)c2)cc1OC [Example 68]	10 to 100
Cc1[nH]nc(-c2cc(Cl)c(O)cc2O)c1-c1ccccc1Br [Example 69]	10 to 100
Cc1n[nH]c(-c2cc(Cl)c(O)cc2O)c1-c1ccc(OCCCC#N)cc1 [Example 70]	< 10
COc1ccccc1-c1c[nH]nc1-c1cc(Cl)c(O)cc1O [Example 71]	10 to 100
CCOc1cccc(-c2ccc(-c3c[nH]nc3-c3cc(Cl)c(O)cc3O)cc2)c1 [Example 72]	< 10
N#CCCCOc1cccc(-c2c[nH]nc2-c2cc(Cl)c(O)cc2O)c1 [Example 73]	< 10
N#CCCCOc1ccccc1-c1c[nH]nc1-c1cc(Cl)c(O)cc1O [Example 74]	< 10
O=C(O)CCCOc1ccc(-c2c[nH]nc2-c2cc(Cl)c(O)cc2O)cc1 [Example 75]	< 10
Oc1ccc(-c2c[nH]nc2-c2cc(Cl)c(O)cc2O)cc1 [Example 76]	< 10
COc1cccc(-c2c[nH]nc2-c2cc(Cl)c(O)cc2O)c1 [Example 77]	< 10
Cc1[nH]nc(-c2cc(Cl)c(O)cc2O)c1-c1ccccc1 [Example 78]	< 10

Compound	IC50 [µM]
CCc1cc(-c2n[nH]cc2-c2ccc(Br)cc2)c(O)cc1O [Example 79]	< 10
CCc1cc(-c2n[nH]cc2-c2ccc([N+](=O)[O-])cc2)c(O)cc1OC [Example 80]	10 to 100
CCc1cc(-c2n[nH]c(C)c2-c2nc3ccccc3n2C)c(O)cc1O [Example 82]	10 to 100
CCc1cc(-c2n[nH]cc2-c2ccc3c(c2)OCCO3)c(O)cc1O [Example 83]	< 10
CCc1cc(-c2n[nH]c(C(F)(F)F)c2-c2nc3ccccc3s2)c(O)cc1O [Example 84]	10 to 100
Cc1[nH]nc(-c2ccc(O)cc2O)c1-c1ccc2c(c1)OCCCO2 [Example 86]	> 10
CCc1cc(-c2n[nH]cc2-c2ccc3c(c2)OCO3)c(O)cc1O [Example 87]	< 10
CCCc1cc(-c2n[nH]c(C)c2-c2ccc3c(c2)OCCO3)c(O)cc1O [Example 88]	10 to 100
Cc1nc(-c2c[nH]nc2-c2cc(C)c(O)cc2O)cs1 [Example 90]	10 to 100
CCc1cc(-c2n[nH]cc2-c2cscn2)c(O)cc1O [Example 91]	10 to 100
COc1ccc(-c2c(-c3cc(-c4ccccc4)c(O)cc3O)n[nH]c2C)cc1 [Example 94]	< 10
COc1ccc(-c2c(-c3cc(CCc4ccccc4)c(O)cc3O)n[nH]c2C)cc1 [Example 95]	< 10
CCCc1cc(-c2[nH]ncc2-c2ccc(C(=O)OCC)o2)c(O)cc1O [Example 97]	10 to 100
CCCc1cc(-c2n[nH]c(C)c2-c2ccc(C(=O)OCC)o2)c(O)cc1O [Example 98]	10 to 100
CCc1cc(-c2[nH]nc(CCC(=O)O)c2-c2nc3ccccc3n2C)c(O)cc1O [Example 99]	10 to 100
CCCc1cc(-c2n[nH]c(C)c2-c2nc3ccccc3s2)c(O)cc1O [Example 100]	10 to 100
CCc1cc(-c2n[nH]cc2-c2ncc(C)s2)c(O)cc1O [Example 101]	10 to 100
CCc1cc(-c2n[nH]c(C(=O)O)c2-c2ncc(C)s2)c(O)cc1O [Example 102]	10 to 100
CCc1cc(-c2n[nH]c(C(F)(F)F)c2-c2ccccc2)c(O)cc1O [Example 103]	10 to 100
COc1ccc(-c2c(-c3cc(Cc4ccccc4)c(O)cc3O)n[nH]c2C)cc1 [Example 104, 4-benzyl-6-[4-(4-methoxy-phenyl)-5-methyl-1H-pyrazol-3-yl]-benzene-1,3-diol]	< 10
Cc1c(CC(=O)NCc2ccc(-c3c[nH]nc3-c3cc(Cl)c(O)cc3O)cc2)c(=O)oc2cc(N)c(S(=O)(=O)O)cc12 [Example 105]	< 10
O=C(NCc1ccc(-c2c[nH]nc2-c2cc(Cl)c(O)cc2O)cc1)c1ccc(-c2c3ccc(=O)cc-3oc3cc(O)ccc23)c(C(=O)O)c1 [Example 106, N-{4-[3-(5-Chloro-2,4-dihydroxy-phenyl)-1H-pyrazol-4-yl]-benzyl}-6-(6-hydroxy-3-oxo-3H-xanthen-9-yl)-isophthalamic acid]	< 10
Cc1[nH]nc(-c2cc(Cl)ccc2O)c1-c1ccc2c(c1)OCCO2 [Example 107]	10 to 100
Cc1[nH]nc(-c2cc(F)ccc2O)c1-c1ccc2c(c1)OCCO2 [Example 108]	< 10
Cc1ccc(O)c(-c2n[nH]c(C)c2-c2ccc3c(c2)OCCO3)c1 [Example 110]	> 10
Cc1[nH]nc(-c2ccc(S(N)(=O)=O)cc2)c1-c1ccc2c(c1)OCCO2 [Example 111]	> 10

same assay, conditions: malachite green assay, 1 mM ATP; ±SD if n=3–5; read-out: HSP90 ATPase inhibition IC50

Compound	IC50 [µM]
CCCc1cc(-c2n[nH]c(C)c2-c2ccc3c(c2)OCCO3)c(O)cc1O [CCT018156]	52.8 ± 12
CCCc1cc(-c2n[nH]c(C)c2-c2ccc3c(c2)OCO3)c(O)cc1O [CCT018158]	19
